Values joined by “and” are separate entries in the source; they are usually repeats but may differ in a detail not shown here. Identical values can stand only once.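 Five concentrations, 48 hours, 96-well plates. Abbreviation: GI50, concentration required for 50% inhibition of growth. TGI: concentration producing complete growth inhibition.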
system: HCT-116 colon; experiment: NCI anticancer screen, dose series, 48 h

SMILES	GI50	TGI
COc1cc2c(cc1OCCCOc1cc3c(cc1OC)C(=O)N1C[C@H](F)C[C@H]1C=N3)N=C[C@@H]1C[C@@H](F)CN1C2=O	6.4 µM	42.8 µM
c1ccc2c(c1)CCC/C2=N\OCC1CO1 (stereo not given)		> 100 µM
CC/C(C)=C1\CCC(CN2CCOCC2)C1=O (stereo not given)		26.8 µM
COC(=O)C1C(C(=O)OC)C2(OC)c3ccccc3-c3ccccc3C12 (stereo not given)		> 100 µM
CCN(CC)CC(O)CNc1ccc(NCC2CO2)c2c1C(=O)c1ccccc1C2=O (stereo not given)	0.0866 µM	1.11 µM
CC(=O)c1cccc(N2COC(C)(C)c3nc4ccccc4n3C2)c1		> 100 µM
Cc1c[nH]c2c(O)cc3c(c12)[C@H](CCl)CN3C(=O)c1cc2cc(NC(=O)Nc3ccc4[nH]c(C(=O)N5C[C@@H](CCl)c6c5cc(O)c5[nH]cc(C)c65)cc4c3)ccc2[nH]1	0.0031 µM	
CCOC(=O)NC(=O)c1cn(CC(=O)NCC(=O)NCC(=O)NCCCN2CCN(CCCNC(=O)CNC(=O)CNC(=O)Cn3cc(C(=O)NC(=O)OCC)c(=O)[nH]c3=O)CC2)c(=O)[nH]c1=O		> 100 µM
O=S(=O)(N/N=C/c1ccc(/C=N/NS(=O)(=O)c2ccccc2)cc1)c1ccccc1		> 100 µM
CC[C@@H]1OC2(C)CC(S(=O)(=O)c3ccccc3O)CC1O2 (stereo not given in full)		> 100 µM
CCOC(=O)C(N)C[S][Sn]([CH3])([CH3])[Cl] (stereo not given)	> 100 µM	> 100 µM
NNC(=O)/C(=C/c1ccc(Cl)c(Cl)c1)NC(=O)c1ccccc1		> 100 µM
CC(=O)OCC1OC(N2C(=O)C(=O)c3cc(C)ccc32)C(OC(C)=O)C(OC(C)=O)C1OC(C)=O (stereo not given)		> 100 µM
O=C1c2ccccc2-c2cccc3ccc(Cc4ccc5ccccc5c4)c1c23		> 100 µM
Cc1cc(C)c([O-])c(CN(C)CCN(C)Cc2cc(C)cc(C)c2[O-])c1.O=C([O-])c1cccc(C(=O)[O-])n1.[Ti+4]	0.383 µM	22.3 µM
COc1cc(OC)c(/C=C/S(=O)(=O)Cc2cnc(OC)c(N)c2)c(OC)c1	< 0.0209 µM	> 100 µM
CCOC(=O)C(Cc1c[nH]c2ccc(N)cc12)(NC(C)=O)C(=O)OCC	> 1000 µM	> 1000 µM
CN1CCN(CCCN)CC1		> 100 µM
COc1cc(Cl)c2c3c(c(C(C)=O)oc13)CCC2		> 100 µM
CC(=O)Nc1ccc(C(=O)NN2C(=O)C(Cl)C2c2ccc(Cl)cc2)cc1 (stereo not given)		> 100 µM

SMILES	GI50	TGI
Nc1ccc(N(S(=O)(=O)c2ccccc2)S(=O)(=O)c2ccccc2)c(Cl)c1		> 100 µM
CCCCc1c2c(nc3c1CCC/C3=C\c1ccccc1)C(=O)CCC2		39.5 µM
CC(O)c1cccc(NCc2c3ccccc3c(=O)n3c2oc2ccccc23)c1 (stereo not given)	3.13 µM	14.4 µM
COc1ccc([N+]2=NC(c3ccc([N+](=O)[O-])cc3)=NN(c3ccccc3)C2)cc1		> 100 µM
C=CC1(C(=O)O)CCC(C(C)(C)C)CC1 (stereo not given)		> 100 µM
NC(=O)C(=Cc1ccc(C(O)P(=O)(O)O)cc1)C(N)=O (stereo not given)		> 100 µM
O=C(Nc1cc(Cl)c(Cl)cc1Cl)C(=O)C1C=CCS1(=O)=O (stereo not given)		> 100 µM
CCNC(=O)CCN(C(=O)O)S(=O)(=O)c1ccc(NC(=O)c2ccccc2)cc1		> 100 µM
O=C(/C=C/c1ccc([N+](=O)[O-])o1)N1CCN(Cc2ccccc2)CC1		22.7 µM
CC1C[C@@]2(c3ccccc3)C(=O)CCC[C@H]2N1 (stereo not given in full)		> 100 µM
O=[N+]([O-])c1cccc(/C=N\NS(=O)(=O)c2ccc(Cl)cc2)c1O		> 100 µM
CC(=O)N[C@H]1C=C[C@@H]2/C=C(C)/C=C/[C@@H](C)[C@H]([C@H](C)[C@H](O)[C@@H](C)NC(C)=O)OC(=O)/C=C/C=C(C)\C=C\[C@]2(C)C1	0.00564 µM and 0.0045 µM	4.65 µM and > 45 µM
CC1=C(C(=O)Nc2ccccc2C)C(c2ccc(Cl)c(Cl)c2)C(C(=O)Nc2ccccc2C)=C(C)N1		45.2 µM
Cc1cc(I)cc(CN(C)CCCN2CCSCC2)c1O	13.3 µM	30.8 µM
CCCCOC(=O)NC(=O)c1cn(CCCOC(=O)CCCCCCCCC(=O)OCCCn2cc(C(=O)NC(=O)OCCCC)c(=O)[nH]c2=O)c(=O)[nH]c1=O		> 100 µM
Cc1[nH]c2ccccc2c1C1Cc2ccccc2N1C(=O)/C=C\C(=O)O (stereo not given)		> 100 µM
CCN(CC)CCC(=O)NC1c2ccc(Cl)cc2Oc2c(C)cccc21 (stereo not given)		30.2 µM
Nc1c(C(=O)c2ccc(Cl)cc2)sc(Nc2ccccc2)c1-c1nc2ccccc2s1	5.04 µM	> 100 µM
CCOC(=O)c1cc(C#N)c(=O)n(/N=C(\C)c2ccncc2)c1O	> 100 µM	> 100 µM
